Earlier results in patent publication US20170105937A1, “OLAPARIB CO-PRECIPITATE AND PREPARATION METHOD THEREOF” (CADILA HEALTHCARE LIMITED, priority 2015, published 2017).

Details: poor solubility and moderate permeability

## O=C(c1cc(Cc2n[nH]c(=O)c3ccccc23)ccc1F)N1CCN(C(=O)C2CC2)CC1 [Olaparib, 4-[3-(4-cyclopropanecarbonyl-piperazine-1-carbonyl)-4-fluoro-benzyl]-2H-phthalazin-1-one]
  Biopharmaceutics Classification System (BCS) class: class 4
